Data on 45 compounds can be found in US5714485A, “Piperidine and hexahydropyridazine thrombin inhibitors” (Merck & Co., Inc., priority 1997, dated 1998).

Where only a bound is given, the exact number is not on record here.

One assay deals with T1, human a-thrombin (Homo sapiens, UniProt P00734).
T1 construct: human a-thrombin
The experiment in a line: In vitro assay for determining proteinase inhibition: human a-thrombin.
Details: not given
Format: biochemical. Here is the method:
Assays of human a-thrombin and bovine trypsin were performed at 25° C. in 0.05M TRIS buffer pH 7.4, 0.15M NaCl, 0.1% PEG. Trypsin assays also contained 1 mM CaCl2.
Concentrations of stock solutions of Z-GPR-afc were determined from measurements of absorbance at 380 nm of the 7-amino-4-trifluoromethyl coumarin produced upon complete hydrolysis of an aliquot of the stock solution by thrombin.
Activity assays were performed by diluting a stock solution of substrate at least tenfold to a final concentration ≥0. I Km into a solution containing enzyme or enzyme equilibrated with inhibitor. Times required to achieve equilibration between enzyme and inhibitor were determined in control experiments. Initial velocities of product formation in the absence (Vo) or presence of inhibitor (Vi) were measured. Assuming competitive inhibition, and that unity is negligible compared Km /[S], […] (where [S], [I], and e respectively represent the total concentrations, of substrate, inhibitor and enzyme), the equilibrium constant (Ki) for dissociation of the inhibitor from the enzyme can be obtained from the dependence of Vo /Vi on [I] shown in equation 1.
The compound `N[C@H]1CC[C@H](CNC(=O)[C@@H]2CCCN2C(=O)[C@@H](Cc2ccccc2)NS(=O)(=O)Cc2ccccc2)CC1` came in with a Ki of 0.4 nM.
Turning to `N[C@H]1CC[C@H](CNC(=O)[C@@H]2CCCN2C(=O)C2(O)c3ccccc3Sc3ccccc32)CC1`, the Ki is 3 nM.

Still in this assay, the particulars now being: Table 1, part headed Ki (NM); read-out: Ki vs thrombin.
`N[C@H]1CC[C@H](CNC(=O)[C@@H]2CCCN2C(=O)[C@@H](Cc2c[nH]c3ccccc23)NC(=O)OCc2ccccc2)CC1`: the Ki was 16 nM.
Same read-out and setting: in the case of `N[C@H]1CC[C@H](CNC(=O)[C@@H]2CCCN2C(=O)[C@@H](Cc2ccccc2)NC(=O)OCc2ccncc2)CC1` it was 15 nM; in that of `CC(C)(C)OC(=O)N[C@H](CCc1ccccc1)C(=O)N1CCC[C@H]1C(=O)NC[C@H]1CC[C@H](N)CC1`, 50 nM; in that of `CC(C)(C)C[C@@H](NC(=O)OCc1ccccc1)C(=O)N1CCC[C@H]1C(=O)NC[C@H]1CC[C@H](N)CC1` [CbzNH, CH2 -tBu], 2.3 nM.
With `CC(C)(C)OC(=O)N[C@H](CC1CCCCC1)C(=O)N1CCC[C@H]1C(=O)NC[C@H]1CC[C@H](N)CC1`, the Ki was 12 nM.
Still for that read-out and setting: in the case of `CC(C)(C)OC[C@@H](NC(=O)OC(C)(C)C)C(=O)N1CCC[C@H]1C(=O)NC[C@H]1CC[C@H](N)CC1` [BocNH, CH2 O-tBu] it was 6 nM; in that of `CC(C)(C)OC(=O)N[C@@H](C(=O)N1CCC[C@H]1C(=O)NC[C@H]1CC[C@H](N)CC1)c1ccccc1`, 6.8 nM.

Staying with this assay, now noted: Table 1; read-out: Ki vs Thrombin.
Consider `N[C@H](Cc1ccc2ccccc2c1)C(=O)N1CCC[C@H]1C(=O)NC[C@H]1CC[C@H](N)CC1`, for which the Ki came to 27 nM.
Still for that read-out and setting: in the case of `CC(=O)N1CCC[C@H]1C(=O)NC[C@H]1CC[C@H](N)CC1` [H, H] it was > 10000 nM; in that of `CC(C)(C)OC(=O)N[C@H](Cc1ccccc1)C(=O)N1CCC[C@H]1C(=O)NC[C@H]1CC[C@H](N)CC1`, 9.4 nM; in that of `CC(C)(C)OC(=O)N[C@@H](C(=O)N1CCC[C@H]1C(=O)NC[C@H]1CC[C@H](N)CC1)C(OC(C)(C)C)c1ccccc1` (some centres unmarked), 200 nM.
As to `N[C@H](Cc1ccc(Cl)c(Cl)c1)C(=O)N1CCC[C@H]1C(=O)NC[C@H]1CC[C@H](N)CC1` [3,4-Cl2PhCH2, NH2], the Ki was determined as 1.5 nM.
`N[C@H]1CC[C@H](CNC(=O)[C@@H]2CCCN2C(=O)[C@@H](CC2CCCCC2)NS(=O)(=O)CC(F)(F)F)CC1`: the inhibition constant (Ki) turned out to be 3 nM.
With `N[C@H]1CC[C@H](CNC(=O)[C@@H]2CCCN2C(=O)[C@H](O)Cc2ccccc2)CC1`, the Ki came to 63 nM.
`N[C@H]1CC[C@H](CNC(=O)[C@@H]2CCCN2C(=O)CCc2ccccc2)CC1` [PhCH2, H]: the inhibition constant Ki was determined as 680 nM.
The same measure, in the same setting: for `N[C@H]1CC[C@H](CNC(=O)[C@@H]2CCCN2C(=O)CCC2CCCCC2)CC1` [C6 H11 CH2, H] the value was 150 nM.
With `N[C@H]1CC[C@H](CNC(=O)[C@@H]2CCCN2C(=O)[C@@H](Cc2ccccc2)NCCc2ccccc2)CC1`, the Ki came out at 4 nM.
Same read-out and setting: for `N[C@H](Cc1ccccc1)C(=O)N1CCC[C@H]1C(=O)NC[C@H]1CC[C@H](N)CC1` [PhCH2, NH2] the value was 3.4 nM; for `N[C@H]1CC[C@H](CNC(=O)[C@@H]2CCCN2C(=O)C2Cc3ccccc3CN2)CC1` (some centres unmarked), 152 nM; for `CS(=O)(=O)N[C@H](Cc1ccccc1)C(=O)N1CCC[C@H]1C(=O)NC[C@H]1CC[C@H](N)CC1` [PhCH2, CH3 SO2 NH], 17 nM.
Take `CC(C)(C)OC(=O)N[C@@H](C(=O)N1CCC[C@H]1C(=O)NC[C@H]1CC[C@H](N)CC1)[C@@H](OC(C)(C)C)c1ccccc1`: the inhibitory constant (Ki) stood at 8 nM.
Same read-out and setting: for `CC(=O)N[C@H](Cc1ccccc1)C(=O)N1CCC[C@H]1C(=O)NC[C@H]1CC[C@H](N)CC1` the value was 170 nM; for `N[C@H]1CC[C@H](CNC(=O)[C@@H]2CCCN2C(=O)[C@@H](Cc2ccccc2)NC(=O)OCc2ccccc2)CC1`, 3.7 nM; for `N[C@H]1CC[C@H](CNC(=O)[C@@H]2CCCN2C(=O)CCc2ccc(Cl)c(Cl)c2)CC1` [3,4-Cl2PhCH2, H], 414 nM.
Same read-out and setting: for `N[C@H](Cc1cccnc1)C(=O)N1CCC[C@H]1C(=O)NC[C@H]1CC[C@H](N)CC1` the value was 30 nM; for `CN[C@H](Cc1ccc(Cl)c(Cl)c1)C(=O)N1CCC[C@H]1C(=O)NC[C@H]1CC[C@H](N)CC1` [3,4-Cl2PhCH2, CH3 NH], 2.9 nM; for `CN[C@H](CC1CCCCC1)C(=O)N1CCC[C@H]1C(=O)NC[C@H]1CC[C@H](N)CC1`, 2.3 nM.

Still in this assay, the particulars now being: Table 2, lower part; head Ki(nM) without target; read-out: Ki.
Consider `N[C@H]1CC[C@H](CNC(=O)[C@@H]2CCCN2C(=O)C2COc3ccccc3O2)CC1` (some centres unmarked), for which the Ki was 55 nM.
On the same count and under the same terms, in the case of `N[C@H]1CC[C@H](CNC(=O)[C@@H]2CCCN2C(=O)[C@H](NCC(=O)O)C(c2ccccc2)c2ccccc2)CC1` [drawing 39] it was 0.17 nM; in that of `N[C@H]1CC[C@H](CNC(=O)[C@@H]2CCCN2C(=O)C2(O)c3ccccc3-c3ccccc32)CC1`, 1.5 nM; in that of `N[C@H]1CC[C@H](CNC(=O)[C@@H]2CCCN2C(=O)[C@H](NCC(=O)O)C(c2ccc(Cl)cc2)c2ccc(Cl)cc2)CC1`, 0.13 nM.
Turning to `C[C@@H](N[C@@H](C(=O)N1CCC[C@H]1C(=O)NC[C@H]1CC[C@H](N)CC1)C(c1ccccc1)c1ccccc1)C(=O)O` [drawing 41], the inhibition constant Ki amounted to 0.05 nM.

The same assay, now with this note: Table 2; read-out: Ki vs thrombin.
Regarding `CC(C)(C)C[C@@H](NS(=O)(=O)Cc1ccccc1)C(=O)N1CCC[C@H]1C(=O)NC[C@H]1CC[C@H](N)CC1`, the inhibition constant Ki was 0.4 nM.
The same measure, in the same setting: in the case of `N[C@H]1CC[C@H](CNC(=O)[C@@H]2CCCN2C(=O)CC(c2ccccc2)c2ccccc2)CC1` it was 2 nM; in that of `CC(C)(C)OC[C@@H](NS(=O)(=O)CC12CCC(CC1=O)C2(C)C)C(=O)N1CCC[C@H]1C(=O)NC[C@H]1CC[C@H](N)CC1` (some centres unmarked), 0.05 nM; in that of `CC1(C)C2CCC1(CS(=O)(=O)N[C@H](CC1CCCCC1)C(=O)N1CCC[C@H]1C(=O)NC[C@H]1CC[C@H](N)CC1)C(=O)C2` (some centres unmarked), 0.1 nM.
Still for that read-out and setting: for `CC(C)(C)OC(=O)N[C@@H](C(=O)N1CCC[C@H]1C(=O)NC[C@H]1CC[C@H](N)CC1)C(c1ccccc1)c1ccccc1` the value was 0.102 nM; for `N[C@@H](C(=O)N1CCC[C@H]1C(=O)NC[C@H]1CC[C@H](N)CC1)C(c1ccccc1)c1ccccc1`, 0.12 nM; for `N[C@H]1CC[C@H](CNC(=O)[C@@H]2CCCN2C(=O)[C@@H](Cc2ccccc2)NCC(=O)O)CC1`, 1.3 nM.

The assay is the same for the next values; noted with them: compared with the other diastereomer.
In the case of `N[C@H]1CC[C@H](CNC(=O)[C@@H]2CCCN2C(=O)[C@H](NS(=O)(=O)Cc2ccccc2)C(c2ccccc2)c2ccccc2)CC1` (single isomer, unassigned) [Example 9 less polar diastereomer, trans-4-Amino-cyclohexylmethyl N-(benzylsulfonyl)-D and L-3,3-diphenylalanyl-L-proline amide], the “relative activity of diastereomers in a thrombin inhibition assay” value was “more active isomer”.
On the same count and under the same terms, in the case of `N[C@@H](C(=O)N1CCC[C@H]1C(=O)NC[C@H]1CC[C@H](N)CC1)C(c1ccccc1)c1ccccc1` (single isomer, unassigned) [Example 7 less polar diastereomer, trans-4-Aminocyclohexylmethyl L- and D-(3,3)-diphenyl alanyl-L-proline amide] it was “more active isomer”.

Another assay deals with thrombotic occlusion of the right carotid artery. The experiment in a line: In vivo rat ferric chloride assay measuring thrombotic occlusion. Also noted: species or system Male Sprague-Dawley rats. As to conditions: i.v. dose 1 μg/kg/min, FeCl3, rats. As for the experimental part: Applicants have conducted in vivo studies of the compounds claimed herein using the following rat ferric chloride assay.
In the assay used to determine in vivo activity of the thrombin inhibitors or the invention, Male Sprague-Dawley rats (body weights 200-350 grams) were anesthetized with dial-urethane solution (0.1 ml/100 gm body weight i.p.), and a lateral tail vein was cannulated with a 23 gauge needle connected to a 12 inch length of PE50 tubing. The tubing was attached to a 3-way valve by a tubing adapter. Saline (control) or test compound, as appropriate, was administered via the tail vein catheter. A tracheostomy was performed with a 0.75 inch length of PE205 tubing. The right carotid artery was exposed and a 1.3 mm diameter Doppler flow probe was placed on the vessel. Body temperature was maintained at 37° C. using a heat lamp.
Rats (8-10/group) were randomized to continuous intravenous infusions of saline or test compound administered via the tail vein at a rate of 0.028 ml/min. Treatment infusions were initiated 120 min before the placement of a 3 mm square piece of Whatman No. 1 filter paper saturated with 35% FeCl3 onto the exposed carotid artery distal to the flow probe. […] Time to occlusion was defined as the time from application of FeCl3 to thrombotic occlusion of the vessel.
For the compound `N[C@H]1CC[C@H](CNC(=O)[C@@H]2CCCN2C(=O)[C@H](NCC(=O)O)C(c2ccccc2)c2ccccc2)CC1` [drawing 47], the Incidence of occlusion is on record as 1/6.
The same measure, in the same setting: in the case of `C[C@@H](N[C@@H](C(=O)N1CCC[C@H]1C(=O)NC[C@H]1CC[C@H](N)CC1)C(c1ccccc1)c1ccccc1)C(=O)O` [drawing 48] it was 1/6.

The same assay, now with this note: i.v. dose 10 μg/kg/min, FeCl3, rats.
In the case of `N[C@H]1CC[C@H](CNC(=O)[C@@H]2CCCN2C(=O)[C@H](NCC(=O)O)C(c2ccccc2)c2ccccc2)CC1` [drawing 47], the Incidence of occlusion is recorded as 0/6.
Still for that read-out and setting: for `C[C@@H](N[C@@H](C(=O)N1CCC[C@H]1C(=O)NC[C@H]1CC[C@H](N)CC1)C(c1ccccc1)c1ccccc1)C(=O)O` [drawing 48] the value was 0/6.

By Ki is commonly meant a measure of affinity in units of concentration, obtained from inhibition or displacement.
